Test results published in patent US20220226340A1, “CASEIN KINASE 1 INHIBITORS FOR USE IN THE TREATMENT OF DISEASES RELATED TO DUX4 EXPRESSION SUCH AS MUSCULAR DYSTROPHY AND CANCER” (Facio Intellectual Property B.V., priority 2019, published 2022).
Where two headings read alike, the source gives them in different places.

What was measured:
[1] = target: CK1α (Homo sapiens, UniProt P48729); test: CK1α inhibition IC50; type: biochemical
[2] = test system: DUX4; test: high-content immunocytochemistry assay of endogenous DUX4 expression in differentiating primary FSHD myotubes; type: cell-based, human; conditions: for EC50: Homo sapiens, Myotube
Description: A quantitative assay readout was developed based on script-based image analysis. […] To analyse the images, an automated script was developed, enabling the detection of nuclei, myotube borders and DUX4 signals, with the script also detecting artefacts to reduce false positive signals. The script enabled multiple validated readouts including the number of DUX4 positive nuclei and nuclei clusters, the fusion index, myotube area, myotube width and myotube skeleton length (see FIG. 2). Additionally, the total nuclei count was included as a measure of cell loss or compound toxicity.
A compound library containing approximately 5000 annotated compounds was screened in the high-content assay. For this purpose, primary myoblasts were seeded in 384 well plates after which the growth medium was replaced with differentiation medium. After 3 days of differentiation, cells were treated with library compounds (in duplicate on different screening plates) for 15 h, after which they were fixed and stained with antibodies against DUX4, antibodies against myosin heavy chain (MHC), and with DAPI (4′,6-diamidino-2-phenylindole). Script-based analysis provided readouts for DUX4 expression (count of DUX4-positive nuclei or DUX4 intensity) and for potential toxicity (fusion index and nuclei count).
Compounds were incubated with primary FSHD cells for 15 hours, as indicated by the arrow in FIG. 4A.
Compounds are administered either 15 h before fixation, resembling the original screening protocol, or 72 h before fixation (grey arrow). In the latter case, compounds are present during the whole differentiation process.

[3] = target: p38α (Homo sapiens, UniProt Q16539); test: p38α inhibition IC50; type: biochemical
Chain of p38α (Q16539 whole entry): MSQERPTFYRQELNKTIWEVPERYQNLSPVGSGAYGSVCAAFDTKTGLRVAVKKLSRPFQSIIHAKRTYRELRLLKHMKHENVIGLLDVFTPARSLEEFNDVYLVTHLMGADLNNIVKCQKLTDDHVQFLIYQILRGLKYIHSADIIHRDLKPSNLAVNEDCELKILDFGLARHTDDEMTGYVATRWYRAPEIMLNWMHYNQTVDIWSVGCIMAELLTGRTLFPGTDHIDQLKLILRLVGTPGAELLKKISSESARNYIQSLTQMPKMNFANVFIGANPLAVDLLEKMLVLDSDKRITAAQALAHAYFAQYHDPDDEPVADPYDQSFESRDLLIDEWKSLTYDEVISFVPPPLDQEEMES

[4] = target: CK1δ (Homo sapiens, UniProt P48730); test: CK1δ inhibition IC50; type: biochemical
Chain of CK1δ (P48730 whole entry): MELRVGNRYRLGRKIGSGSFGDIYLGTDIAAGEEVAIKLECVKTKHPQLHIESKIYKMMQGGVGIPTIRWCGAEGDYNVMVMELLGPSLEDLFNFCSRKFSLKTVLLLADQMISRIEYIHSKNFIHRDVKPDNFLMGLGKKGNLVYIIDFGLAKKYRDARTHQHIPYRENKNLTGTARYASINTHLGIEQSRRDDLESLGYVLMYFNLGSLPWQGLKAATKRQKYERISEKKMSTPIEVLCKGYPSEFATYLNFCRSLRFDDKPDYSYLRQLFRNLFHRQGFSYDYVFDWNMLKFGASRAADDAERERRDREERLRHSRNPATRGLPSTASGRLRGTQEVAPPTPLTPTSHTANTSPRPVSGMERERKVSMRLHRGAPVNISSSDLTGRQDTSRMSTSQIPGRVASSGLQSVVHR

[5] = target: CK1ε (Homo sapiens, UniProt P49674); test: CK1ε inhibition IC50; type: biochemical
Chain of CK1ε (P49674 whole entry): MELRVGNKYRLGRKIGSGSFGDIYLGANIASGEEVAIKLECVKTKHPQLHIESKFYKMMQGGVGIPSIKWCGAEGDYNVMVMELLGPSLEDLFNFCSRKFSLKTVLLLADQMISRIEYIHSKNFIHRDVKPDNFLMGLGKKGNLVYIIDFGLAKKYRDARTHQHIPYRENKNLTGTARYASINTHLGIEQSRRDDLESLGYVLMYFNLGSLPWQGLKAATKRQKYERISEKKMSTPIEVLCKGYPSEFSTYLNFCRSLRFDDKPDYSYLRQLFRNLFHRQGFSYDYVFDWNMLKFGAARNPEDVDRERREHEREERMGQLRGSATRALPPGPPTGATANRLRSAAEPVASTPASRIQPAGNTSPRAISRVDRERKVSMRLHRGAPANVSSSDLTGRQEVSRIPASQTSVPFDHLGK

[6] = Table 7, p38 compounds, read-out: IC50 CK1a
[7] = 72 h, Table 4, 72 h treatment protocol, read-out: DUX4 EC50
[8] = 72 h, Table 6, 72 h treatment protocol, read-out: DUX4 EC50
[9] = 15 h, read-out: EC50 for DUX4 repression

Chain of CK1α (P48729 whole entry): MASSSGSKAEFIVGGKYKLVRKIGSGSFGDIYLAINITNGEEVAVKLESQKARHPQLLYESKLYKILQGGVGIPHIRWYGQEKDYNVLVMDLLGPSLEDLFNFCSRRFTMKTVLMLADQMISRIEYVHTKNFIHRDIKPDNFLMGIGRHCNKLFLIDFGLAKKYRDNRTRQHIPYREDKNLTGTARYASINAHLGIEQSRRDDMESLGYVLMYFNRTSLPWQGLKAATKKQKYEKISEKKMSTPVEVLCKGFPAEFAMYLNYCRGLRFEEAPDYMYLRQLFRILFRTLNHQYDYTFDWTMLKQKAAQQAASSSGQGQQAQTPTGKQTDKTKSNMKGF

SMILES	IC50 ([3]; Table 4, read-out: p38a IC50)	IC50 ([3]; Table 6, read-out: IC50 p38α)	IC50 ([4]; Table 4, read-out: CK1 d IC50)	IC50 ([4]; Table 6, read-out: IC50 CK1δ)	IC50 ([1]; Table 4, read-out: CK1 a IC50)	IC50 ([1]; Table 6, read-out: IC50 CK1α)	EC50 [2, 7]	EC50 [2, 8]	other results
CCCNC(=O)c1cn2ncnc(Nc3cc(C(=O)NC4CC4)ccc3C)c2c1C [BMS-582949, reference compound]	–	–	–	–	–	–	–	–	IC50 [1, 6]: > 10000 nM
Cc1c(F)cc(C(=O)NC2CC2)cc1-c1ccc(C(=O)NCC(C)(C)C)cn1 [Losmapimod, reference compound]	–	–	–	–	–	–	–	–	IC50 [1, 6]: > 10000 nM; effect on DUX4 ([2]; added during the last 15 h of differentiation): did not show any effect
CN1CCN(c2ccc3nc(-c4ccc(F)cc4)c(-c4ccncc4)n3n2)CC1 [Nr. 2]	23 nM	23 nM	29 nM	29 nM	65 nM	65 nM	340 nM	340 nM	–
Cn1cc(-c2ccnc3c2C(=O)N(C2CCOCC2)C3)c(-c2ccc(F)cc2)n1 [Nr. 6]	–	–	–	–	–	–	8100 nM	8100 nM	IC50 ([5]; Table 3, read-out: CK1 e IC50): 72.4 nM; IC50 ([5]; Table 4, read-out: CK1 e IC50): 72.4 nM
COCCN1Cc2nccc(-c3cn(C)nc3-c3ccc(F)cc3)c2C1=O [Nr. 7]	–	–	–	42 nM	–	–	5000 nM	5000 nM	IC50 ([5]; Table 6, read-out: IC50 CK1ε): 92 nM
CNCc1cc(-c2cn(C)nc2-c2ccc(F)cc2)ccn1 [Nr. 9]	–	–	–	58 nM	–	–	–	–	EC50 [2, 9]: 3100 to 5500 nM; EC50 ([2]; 72 h, read-out: DUX4 EC50): 6400 nM
CC1(C)CN(c2ccc3nc(-c4ccccc4)c(-c4ccncc4)n3n2)CCN1 [Nr. 10]	–	–	–	–	–	–	10 nM	10 nM	–
CN1CCN(c2ccc3nc(-c4ccccc4)c(-c4ccncc4)n3n2)CC1 [Nr. 11]	–	–	–	–	–	–	250 nM	250 nM	–
c1ccc(-c2nc3ccc(N4CCNCC4)nn3c2-c2ccncc2)cc1 [Nr. 12]	–	–	–	–	–	–	50 nM	50 nM	–
c1ccc(-c2nc3ccc(N4CCC(N5CCCC5)CC4)nn3c2-c2ccncc2)cc1 [Nr. 13]	–	–	–	–	–	–	310 nM	310 nM	–
Fc1ccc(-c2nc3ccc(N4CCC(N5CCCC5)CC4)nn3c2-c2ccncc2)cc1 [Nr. 14]	42 nM	42 nM	45 nM	45 nM	270 nM	270 nM	390 nM	390 nM	–
Cn1cc(-c2ccnc3[nH]ccc23)c(-c2ccc(F)cc2)n1 [Nr. 16]	–	–	16.9 nM	17 nM	196 nM	196 nM	1200 nM	1200 nM	IC50 ([3]; IC50 p38α, Table 6): 18 nM; IC50 ([3]; p38a IC50, Table 4): 17.9 nM
Cn1cc(-c2ccncc2)c(-c2ccc(F)cc2)n1 [Nr. 17]	63.2 nM	63 nM	36.1 nM	36 nM	873 nM	873 nM	2900 nM	2900 nM	–
Cn1cc(-c2ccnc(N)n2)c(-c2ccc(F)cc2)n1 [Nr. 18]	312 nM	312 nM	46.5 nM	46 nM	636 nM	636 nM	8200 nM	8200 nM	–
Cc1cc(-c2cn(C)nc2-c2ccc(F)cc2)ccn1 [Nr. 19]	449 nM	449 nM	80.7 nM	81 nM	4020 nM	4020 nM	4900 nM	4900 nM	–
Fc1ccc(-c2nn(CC(F)(F)F)cc2-c2ccnc3[nH]ccc23)cc1 [Nr. 20]	50.3 nM	50 nM	55.5 nM	55 nM	186 nM	186 nM	2200 nM	2200 nM	–
Fc1ccc(-c2nc3ccc(N4CCNC5(CC5)C4)nn3c2-c2ccncc2)cc1 [Nr. 21]	28.9 nM	29 nM	58.5 nM	58 nM	61.4 nM	61 nM	100 nM	100 nM	–
Fc1ccc(-c2nc3ccc(N4CCNCC4)nn3c2-c2ccnnc2)cc1 [Nr. 22]	411 nM	411 nM	57.7 nM	58 nM	194 nM	194 nM	1100 nM	1100 nM	–
Fc1ccc(-c2nc3ccc(N4CCOCC4)nn3c2-c2ccncc2)cc1 [Nr. 23]	1250 nM	1250 nM	2090 nM	2090 nM	> 10000 nM	> 10000 nM	2400 nM	2400 nM	–
Fc1ccc(-c2nc3sc(N4CCNCC4)nn3c2-c2ccncc2)cc1 [Nr. 24]	21.7 nM	22 nM	55.7 nM	58 nM	331 nM	331 nM	480 nM	480 nM	–
Nc1nccc(-c2c(-c3ccc(F)cc3)ncn2C2CCCCC2)n1 [PF-670462, reference compound]	32.4 nM	–	–	–	–	–	760 nM	760 nM	IC50 ([3]; Table 3, read-out: p38a IC50): 32.4 nM; effect on DUX4 ([2]; 72 h treatment): repress DUX4
Nc1nccc(-c2c(-c3ccc(F)cc3)ncn2C2CCN(Cc3ccon3)CC2)n1 [PF-5006739, reference compound]	74.3 nM	–	19.8 nM	–	–	–	620 nM	620 nM	IC50 ([3]; Table 3, read-out: p38a IC50): 74.3 nM; IC50 ([4]; Table 3, read-out: CK1 d IC50): 19.8 nM; IC50 ([5]; Table 3, read-out: CK1 e IC50): 26.8 nM; IC50 ([5]; Table 4, read-out: CK1 e IC50): 26.8 nM
CNC(=O)c1ccc(C)c(-n2c(C)cc(OCc3ccc(F)cc3F)c(Br)c2=O)c1 [PH797804, reference compound]	–	–	–	–	–	–	–	–	IC50 [1, 6]: > 10000 nM
Cn1c(=O)c(Oc2ccc(F)cc2F)cc2cnc(NC(CCO)CCO)nc21 [Pamapimod, reference compound]	–	–	–	–	–	–	–	–	IC50 [1, 6]: > 10000 nM
OCCC#Cc1nc(-c2ccc(F)cc2)c(-c2ccncc2)n1CCCc1ccccc1 [RWJ 67657, reference compound]	15.9 nM	16 nM	115 nM	115 nM	1830 nM	1830 nM	780 nM	780 nM	–
C[C@@H]1CN(Cc2ccc(F)cc2)[C@@H](C)CN1C(=O)c1cc2c(C(=O)C(=O)N(C)C)cn(C)c2cc1Cl [SCIO469, reference compound]	–	–	–	–	–	–	–	–	IC50 [1, 6]: > 10000 nM
Fc1cccc(-n2cnc3c(NCc4nc5ccc(F)c(F)c5[nH]4)nc(N4CCOCC4)nc32)c1 [SR-3029, reference compound]	–	–	–	–	–	–	–	–	IC50 ([3]; Table 3, read-out: p38a IC50): > 1000 nM; EC50 ([2]; 15 h, read-out: DUX4 EC50): 50 nM; EC50 [2, 9]: 50 to 120 nM
NC(=O)c1ccc(N(C(N)=O)c2c(F)cccc2F)nc1-c1ccc(F)cc1F [VX702, 2-(2,4-difluorophenyl)-6-(1-(2,6-difluoropheny)ureido)nicotinamide, reference compound]	–	–	–	–	–	–	–	–	IC50 [1, 6]: > 10000 nM
Cc1ccc(-n2nc(C(C)(C)C)cc2NC(=O)NCc2cc(F)ccc2Oc2ccc3c(cnn3CCO)c2)cc1 [pexmetinib, reference compound]	–	–	–	–	–	–	–	–	IC50 [1, 6]: > 10000 nM
